Values of other authors in patent US10155050B2, “Cross-linked star-shaped self-assembled polypeptides and its use as carriers in biomedical applications” (CENTRO DE INVESTIGACION PRINCIPE FELIPE, priority 2015, dated 2018).

Conditions: FVB mice

Substance: inulin
- renal clearance value: around 20 mL/h
